# Experimental data reported in patent US11918597B2, “Triple combination therapies for anti-aging” (LUNELLA BIOTECH, INC., priority 2018, dated 2024).
# Like-named read-outs stand apart in the source and are kept apart here.
# Legend:
# CSCs = experiment: CSC propagation / CSC inhibition activity (cell line not stated); type: cell-based
# [1] = oral administration; cited from earlier work
# rat heart = details: conditions of hypoxia, Vitamin C alone; cited from earlier work
# MCF7 cells [2] = experiment: Mammosphere formation assay (CSC propagation); type: cell-based, human; details: for inhibition at 250 µM: suspension treatment 5-days, doxycycline 1 μM, azithromycin 1 μM, Vitamin C 250 μM, read-out: MFE (% Inhibition ± SD); for IC50: MCF7 cells (FIG. 15), read-out: half maximal inhibitory concentration (IC50), mammosphere assay
# Protocol: The following paragraphs discuss laboratory data and analysis for select embodiments of the present approach. Doxycycline and azithromycin were tested alone and in combination at low concentrations to evaluate the resulting inhibitory effect on mammosphere formation. FIGS. 1A-1C summarize mammosphere formation data for varying concentrations and combinations.
# The temporal effects of pre-treatment on the efficacy of the present approach have been evaluated in the pre-clinical setting, using CSC propagation as the measurement. […] This may be due to MCF7 cells' ability to induce oxidative stress, driving an anti-oxidant response. Given these […] results, it appears embodiments of the present approach that simultaneously co-administer all three therapeutic agents appear to have the most significant impact on the CSC population, and are preferred. […] However, some embodiments may call for administering therapeutic agents within a narrow window, such as 1-3 hours, over multiple days (e.g., 3-7 days in some embodiments, 4-14 days in some embodiments). The antibiotics may be administered in oral form (e.g., pill or tablet), while the Vitamin C is administered intravenously in some embodiments. In others, all three therapeutic agents may be administered orally, either as separate pills or tabs, or as a single concoction containing each therapeutic agent.
# Mammosphere Formation Assay: A single cell suspension was prepared using enzymatic (lx Trypsin-EDTA, Sigma Aldrich, #T3924), and manual disaggregation (25 gauge needle). Cells were plated at a density of 500 cells/cm2 in mammosphere medium (DMEM-F12+B27+20 ng/ml EGF+PenStrep) under non-adherent conditions, in culture dishes pre-coated with (2-hydroxyethylmethacrylate) (poly-HEMA, Sigma, #P3932), called “tumor-sphere plates”. Vehicle alone (DMSO) control cells were processed in parallel. Cells were grown for 5 days and maintained in a humidified incubator at 37° C. After 5 days of culture, 3D mammospheres >50 μm were counted using an eye piece (“graticule”), and the percentage of cells plated which formed spheres was calculated and is referred to as percent mammosphere formation (MFE, and was normalized to one (1=100% MSF).
# U937 cells = details: 15 minutes, media containing 3 μM Vitamin C; cited from earlier work
# MCF7 cells [3] = experiment: Metabolic flux analysis (Seahorse XFe96, OCR and ECAR); type: cell-based, human; details: MCF7 monolayers pre-treated 3-days, doxycycline 1 μM, azithromycin 1 μM, Vitamin C 250 μM as applicable
# Protocol: Metabolic Flux Analysis: Real-time oxygen consumption rates (OCR) and extracellular acidification rates (ECAR) rates in MCF7 cells were determined using the Seahorse Extracellular Flux (XFe96) analyzer (Seahorse Bioscience, USA). Briefly, 1.5×10^4 cells per well were seeded into XFe96 well cell culture plates, and incubated overnight to allow cell attachment. Then, cells were treated with antibiotics for 72 h. Vehicle-alone control cells were processed in parallel. After 72 hours of incubation, cells were washed in pre-warmed XF assay media (or for OCR measurement, XF assay media supplemented with 10 mM glucose, 1 mM Pyruvate, 2 mM L-glutamine and adjusted at 7.4 pH). Cells were then maintained in 175 μL/well of XF assay media at 37° C., in a non-CO2 incubator for 1 hour. During the incubation time, we loaded 25 μL of 80 mM glucose, 9 μM oligomycin, and 1M 2-deoxyglucose (for ECAR measurement) or 10 μM oligomycin, 9 μM FCCP, 10 μM rotenone, 10 μM antimycin A (for OCR measurement), in XF assay media into the injection ports in the XFe96 sensor cartridge. Measurements were normalized by protein content (Bradford assay). Data sets were analyzed using XFe96 software and GraphPad Prism software, using one-way ANOVA and Student's t-test calculations. All experiments were performed in quintuplicate, three times independently.
# senescent fibroblasts = experiment: Senolytic activity on senescent fibroblasts; type: cell-based; details: azithromycin by itself
# Description: Embodiments of the present approach also have implications for improving health-span and life-span. Azithromycin, by itself, is an FDA-approved drug with remarkable senolytic activity that targets and removes senescent fibroblasts, such as myo-fibrobasts. This senolytic activity has considerable efficiency, approaching nearly 97%. The accumulation of pro-inflammatory senescent cells is thought to be the primary cause of many aging-associated diseases, such as heart disease, diabetes, dementia and cancer, for example. Since cancer-associated fibroblasts (CAFs) are senescent myo-fibroblasts, with tumor promoting activity, triple combination embodiments of the present approach with Azithromycin may also effectively target the glycolytic tumor stroma of aggressive and metastatic cancers, especially those bearing the metabolic hallmarks of the “Reverse Warburg Effect.” In some embodiments, the composition prevents acquisition of a senescence-associated secretory phenotype. In some embodiments, the composition facilitates tissue repair and regeneration. In some embodiments, the composition increases at least one of organismal life-span and health-span.
# senescent MRC-5 cells = experiment: BrdU-induced senescence senolytic assay (SRB / xCELLigence); type: cell-based, human; details: BrdU-treated MRC-5 fibroblasts; even at concentrations as low as 25 μM
# Protocol: (§1) Bromodeoxyuridine (5-bromo-2′-deoxyuridine), also known as BrdU, was used to induce senescence. BrdU is an analog of the nucleoside thymidine commonly used to identify proliferating cells. BrdU induces controlled DNA damage, and drives cells towards senescence with high efficiency. The BrdU assay of the present approach calls for subjecting normal fibroblasts to prolonged culture (8-days) in the presence of BrdU at 100 μM to induce controlled DNA-damage and senescence. […] Then, isogenically-matched cultures of normal and senescent fibroblasts may be used for drug screening to identify drugs having senolytic activity. Senolytic activity may be detected using the sulforhodamine B assay, also known in the art as the SRB assay. This assay measures the amount of protein remaining attached to the tissue-culture dishes, and is a surrogate marker for cell viability. This approach may be used to rapidly screen compounds, including clinically-approved drugs, such as, for example, antibiotics. For example, in embodiments described herein, the present approach was used to screen erythromycin family members, including azithromycin and roxithromycin, among other compounds and conjugates. It should be appreciated that the present approach may be used to screen other compounds.
# bulk MCF7 cells = experiment: Cell viability, bulk MCF7 cells; type: cell-based, human; details: range of concentrations, up to 20 μM
# Description: Embodiments of therapeutic agents conjugated with targeting signals have shown less toxicity in bulk cancer cells and normal fibroblasts compared to unconjugated therapeutic agents. For example, FIGS. 17A and 17B show cell viability data for doxycycline and the doxycycline-myristate conjugate shown as compound [1], for bulk MCF7 cells and bulk BJ cells, respectively. The data represents cell viability expressed as a percentage of a control. […] Similar behavior has been seen in other therapeutic agents conjugated with targeting signals.
# bulk BJ cells = experiment: Cell viability, bulk BJ cells; type: cell-based, human; details: bulk BJ cells (normal fibroblasts); range of concentrations, up to 20 μM
# Protocol: as §1, with “For example, in embodiments described herein, the present approach was used to screen erythromycin family members, including azithromycin and roxithromycin, among other compounds and conjugates. It should be appreciated that the present approach may be used to screen other compounds.” left out
# Embodiments of therapeutic agents conjugated with targeting signals have shown less toxicity in bulk cancer cells and normal fibroblasts compared to unconjugated therapeutic agents. […] The data represents cell viability expressed as a percentage of a control. […]
smiles,measurement,setting,value
CCCCCCCCCCCCCC(=O)N(C)[C@H]1C[C@@H](C)O[C@@H](O[C@@H]2[C@@H](C)[C@H](O[C@H]3C[C@@](C)(OC)[C@@H](O)[C@H](C)O3)[C@@H](C)C(=O)O[C@H](CC)[C@@](C)(O)[C@H](O)[C@@H](C)N(C)C[C@H](C)C[C@@]2(C)O)[C@@H]1O [Compound [15]],potency for CSCs compared to azithromycin alone,CSCs,improved
same,selectivity for CSCs compared to azithromycin alone,CSCs,improved
"O=C1O[C@H]([C@@H](O)CO)C(O)=C1O [Vitamin C, Ascorbic Acid]",peak Vitamin C concentration in blood/serum/plasma,[1],about 250 μM
same,increase of mitochondrial ATP production,rat heart,up to 1.5 fold
same,inhibition at 250 µM,"MCF7 cells [2]; Homo sapiens, MCF7, Monolayer pre-treatment D + A 7-days",39.1%
same,inhibition at 250 µM,"MCF7 cells [2]; Homo sapiens, MCF7, Monolayer pre-treatment Vit C 7-days",49.2%
same,Vitamin C level reached in the mitochondria,U937 cells,5 mM
same,ATP production / ATP levels,MCF7 cells [3],significantly increased
same,basal and maximal respiration,MCF7 cells [3],significantly increased
same,glycolysis / glycolytic function (ECAR),MCF7 cells [3],significantly increased
same,glycolytic reserve,MCF7 cells [3],significantly increased
same,glycolytic reserve capacity,MCF7 cells [3],decreasing
same,"oxidative mitochondrial metabolism (OCR, mitochondrial oxygen consumption)",MCF7 cells [3],significantly increased
same,ATP production / ATP levels,MCF7 cells [3]; listed as low-dose Vitamin C,increased
same,basal and maximal respiration,MCF7 cells [3]; listed as low-dose Vitamin C,increased
same,glycolysis / glycolytic function (ECAR),MCF7 cells [3]; listed as low-dose Vitamin C,increased
same,"oxidative mitochondrial metabolism (OCR, mitochondrial oxygen consumption)",MCF7 cells [3]; listed as low-dose Vitamin C,increases
CC[C@H]1OC(=O)[C@H](C)[C@@H](O[C@H]2C[C@@](C)(OC)[C@@H](O)[C@H](C)O2)[C@H](C)[C@@H](O[C@@H]2O[C@H](C)C[C@H](N(C)C)[C@H]2O)[C@](C)(O)C[C@@H](C)CN(C)[C@H](C)[C@@H](O)[C@]1(C)O [azithromycin],"senolytic activity, efficiency of removing senescent fibroblasts",senescent fibroblasts,~97%
same,inhibition of mammosphere formation,MCF7 cells [2]; alone at low concentrations (0.1 μM and 1 μM),little or no effect
"CCCCCCCCCCCCCC(=O)N(C)[C@H]1C[C@@H](C)O[C@@H](O[C@@H]2[C@@H](C)[C@H](O[C@@H]3C[C@@](C)(OC)[C@@H](O)[C@H](C)O3)[C@@H](C)C(=O)O[C@H](CC)[C@@](C)(O)[C@H](O)[C@@H](C)N(C)C[C@H](C)C[C@@]2(C)O)[C@@H]1O [azithromycin—fatty acid conjugate, N-[(2S,3R,4S,6R)-2-[ [(2R,3S,4R,5R,8R,10R,11R,12S,13S,14R)-2-ethyl-3,4,10-trihydroxy-13-[(2S,4R,5S,6S)-5-hydroxy-4-methoxy-4,6-dimethyl-tetrahydropyran-2-yl]oxy-3,5,6,8,10,12,14-heptamethyl-15-oxo-1-oxa-6-azacyclopentadec-11-yl]oxy]-3-hydroxy-6-methyl-tetrahydropyran-4-yl]-N-methyl-tetradecanamide]","senescent MRC-5 cells targeted (final cell index after 5 days, xCELLigence)",senescent MRC-5 cells,~100%
"CCCCCCCCCCCCCC(=O)Nc1ccc2c(c1O)C(=O)C1=C(O)[C@]3(O)C(=O)C(C(N)=O)=C(O)[C@@H](N(C)C)C3[C@@H](O)C1[C@H]2C (stereo partly drawn) [doxycycline-myristate conjugate, (4S,5S,6R,12aS)-4-(dimethylamino)-3,5,10,12,12a-pentahydroxy-6-methyl-1,11-dioxo-9-(tetradecanoylamino)-4a,5,5a,6-tetrahydro-4H-tetracene-2-carboxamide]",toxicity (cell viability as percentage of control),bulk MCF7 cells,less toxic than doxycycline
same,toxicity (cell viability as percentage of control),bulk BJ cells,less toxic than doxycycline
same,CSC inhibition activity compared with the unconjugated antibiotic,CSCs; fatty acid moiety is myristate (n is 12),better CSC inhibitory properties
same,inhibition at 2.5 µM,"MCF7 cells [2]; Homo sapiens, MCF7, 2.5 μM, read-out: inhibition of MCF7 mammosphere formation relative to the control",40 to 60%
same,IC50,MCF7 cells [2]; Homo sapiens,3.46 µM
same,potency in mammosphere assay compared with doxycycline (FIG. 14),"MCF7 cells [2]; MCF7, 1.5 μM, 3 μM, 6 μM, 12 μM",more potent than unconjugated doxycycline
C[C@H]1c2cccc(O)c2C(=O)C2=C(O)[C@]3(O)C(=O)C(C(N)=O)=C(O)[C@@H](N(C)C)[C@@H]3[C@@H](O)[C@@H]21 [doxycycline],IC50,MCF7 cells [2]; Homo sapiens,18.1 µM
